Reference: US12012408B2, “Purine compounds and method for the treatment of cancer” (THE ROYAL INSTITUTION FOR THE ADVANCEMENT OF …, priority 2018, dated 2024)

Tests used:
[1] = test system: MDA-MB-231 and BT-20 cells; test: MTT assay (short-term cell viability); assay type: cell-based; details: time-dependent, SLLN-15 compared with vorinostat; FIG. 6A
Procedure: The short-term effects of SLLN-15 on tumor cell growth were assessed using the 3-(4,5-dimethylthiazol-2-yl)-2,5-diphenylte-trazolium bromide (MTT; Sigma) assay. Cells were seeded at a density of 5000 cells/well in a 96-well plate and treated with SLLN-15 as indicated concentration or DMSO for 24 hours. MTT solution (5 mg/ml in RPMI 1640 medium) was added (20 μl/well), and plates were incubated for 4 hours in dark at 37° C., then the purple formazan crystals were then dissolved in 100 μl MTT solvent (4 mM HCl and 0.1% NP-40 in isopropanol). The plates were read on FLUOstar OPTIMA microplate reader (BMG Labtech, Ortenberg, Germany) at 570 nm. Assays were performed in triplicate on three independent experiments.

[2] = test system: cleaved-PARP, cleaved-caspase 3, Bcl-2 in MDA-MB-231 and BT-20 cells; test: Western blot of indicators of apoptosis; assay type: cell-based; details: FIG. 6B
Procedure: Sub-confluent cells were washed with PBS, lysed in RIPA buffer (50 mM Tris-HCl at pH7.5, 150 mM sodium chloride, 1% tritonX-100, 0.1% SDS, 2 mM EDTA and 25 mM sodium fluoride) supplemented with 1 mM PMSF and protease inhibitor cocktail (Roche) for 10 min on ice and centrifuged (13,000 rpm at 4° C. for 20 min) to separate cell lysate. Cell lysate (50 μg protein, as measured by the Bradford protein assay) was then added with SDS sample buffer (Tris at pH 6.8, 20% glycerol, 5% SDS, bromophenol blue and β-mercaptoethanol) and boiled for 5 min. Samples were then resolved through 13% SDS-PAGE gels, transferred to nitrocellulose membrane, blotted with specific first antibodies at different dilution in cold room overnight, and then amplified with horseradish peroxidase-conjugated secondary antibodies for 1 hour in room temperature and enhanced by chemiluminescence detection system.
Considering apoptosis is the major form of cell death induced by chemotherapeutic agent, we seek to identify whether the anticancer effect of SLLN-15 was mediated via apoptosis in breast cancer cells.

O=C(CCCCCCC(=O)Nc1ccccc1)NO [vorinostat, suberoylanilide hydroxamic acid, reference compound]
cell viability (MTT) [1]: markedly decreased cell viability | indicators of apoptosis: upregulation of cleaved-PARP and cleaved-caspase 3, downregulation of Bcl-2 [2]: only detected in vorinostat treated cells
